This note sets out measurements from ChEMBL document CHEMBL5226389, “Isolation of the Anti-Inflammatory Agent Myceliostatin from a Methionine-Enriched Culture of Myceliophthora thermophila ATCC 42464” (J Nat Prod, 2023).

Series [1] concerns RAW264.7. Kind of series: Cytotoxicity against mouse RAW264.7 cells assessed as reduction in cell viability at 3 microg/ml incubated for 24 hrs by MTT assay. The series is classed as toxicity, cell-based. The following applies: raw264.7, 24 h, dose 3 µg/ml.
Series [2] deals with RAW264.7. Put plainly: Inhibition of LPS-induced NO production in mouse RAW264.7 cells at 0.3 to 3 microg/ml incubated for 24 hrs by griess reagent based microplate reader analysis. The series is classed as functional, cell-based. The following applies: dose 0.3-3 µg/ml.
Series [3] deals with RAW264.7. Put plainly: Antiinflammatory activity in LPS-stimulated mouse RAW264.7 cells assessed as inhibition of IL-6 level incubated for 24 hrs by RT-PCR analysis. The series is classed as functional, cell-based.
The subject of series [4] is RAW264.7. Kind of series: Cytotoxicity against mouse RAW264.7 cells assessed as reduction in cell viability at 10 microg/ml incubated for 4 hrs by MTT assay. The series is classed as toxicity, cell-based. The following applies: raw264.7, 4 h, dose 10 µg/ml.
The subject of series [5] is RAW264.7. Put plainly: Antiinflammatory activity in LPS-stimulated mouse RAW264.7 cells assessed as inhibition of IL-1beta level incubated for 24 hrs by RT-PCR analysis. In kind it is functional, cell-based.
The test system of series [6] is RAW264.7. Put plainly: Antiinflammatory activity in mouse RAW264.7 cells assessed as inhibition of LPS-induced NFkB p65 activation at 3 to 10 microg/ml for 2 hrs followed by LPS stimulation for 2 hrs. In kind it is functional, cell-based. The following applies: dose 3-10 µg/ml, time 4.0 hrs.
In series [7] the test system is RAW264.7. Kind of series: Inhibition of LPS-induced ROS production in mouse RAW264.7 cells at 3 to 10 microg/ml preincubated for 1 hr followed by LPS stimulation and measured after 24 hrs by DCFH-DA staining based fluorescence analysis. The series is classed as functional, cell-based. The following applies: dose 3-10 µg/ml, time 25.0 hrs.

Each structure is given as a SMILES string. The source made the active and inactive calls. No cut-off for these calls is given here.

Take `C/C=C(\C)[C@H]1C(C)=C[C@@]2(C)C[C@@H](C)CC[C@@H]2[C@H]1C(=O)C1=C(SC)[C@](O)(CC(C)C)NC1=O`: in series [1], the Activity result is “Non-Toxic”. Besides, the inhibition result in series [2] was “Active”.
On to `C/C=C(\C)[C@H]1C(C)=C[C@@]2(C)C[C@@H](C)CC[C@@H]2[C@H]1C(=O)C1=C(SC)[C@@](O)(CC(C)C)NC1=O`, for which the Activity entry in series [1] and in series [4] was “Non-Toxic” throughout. For the same molecule, the outcome in series [3], in series [5] and in series [6] was Active. The inhibition result in series [2] and in series [7] was “Active” each time.
